Laboratory results published in publication PMC4488747, “Inhibition of P-glycoprotein Gene Expression and Function Enhances Triptolide-induced Hepatotoxicity in Mice” (Scientific Reports, 2015).
d = 2'-deoxy (DNA)

Key:
P-gp = target: T1, P-gp (Mus musculus, UniProt P21447); experiment: P-gp function in knockdown mice assessed by digoxin plasma pharmacokinetics; type: in vivo; details: iv, 1 mg/kg, digoxin 1 mg/kg injection
T1 construct: from tissue; host or cells: whole living mice (in vivo, intravenous digoxin 1 mg/kg after NC-siRNA or mdr1a-1 siRNA)
T1 sequence (P21447 whole entry): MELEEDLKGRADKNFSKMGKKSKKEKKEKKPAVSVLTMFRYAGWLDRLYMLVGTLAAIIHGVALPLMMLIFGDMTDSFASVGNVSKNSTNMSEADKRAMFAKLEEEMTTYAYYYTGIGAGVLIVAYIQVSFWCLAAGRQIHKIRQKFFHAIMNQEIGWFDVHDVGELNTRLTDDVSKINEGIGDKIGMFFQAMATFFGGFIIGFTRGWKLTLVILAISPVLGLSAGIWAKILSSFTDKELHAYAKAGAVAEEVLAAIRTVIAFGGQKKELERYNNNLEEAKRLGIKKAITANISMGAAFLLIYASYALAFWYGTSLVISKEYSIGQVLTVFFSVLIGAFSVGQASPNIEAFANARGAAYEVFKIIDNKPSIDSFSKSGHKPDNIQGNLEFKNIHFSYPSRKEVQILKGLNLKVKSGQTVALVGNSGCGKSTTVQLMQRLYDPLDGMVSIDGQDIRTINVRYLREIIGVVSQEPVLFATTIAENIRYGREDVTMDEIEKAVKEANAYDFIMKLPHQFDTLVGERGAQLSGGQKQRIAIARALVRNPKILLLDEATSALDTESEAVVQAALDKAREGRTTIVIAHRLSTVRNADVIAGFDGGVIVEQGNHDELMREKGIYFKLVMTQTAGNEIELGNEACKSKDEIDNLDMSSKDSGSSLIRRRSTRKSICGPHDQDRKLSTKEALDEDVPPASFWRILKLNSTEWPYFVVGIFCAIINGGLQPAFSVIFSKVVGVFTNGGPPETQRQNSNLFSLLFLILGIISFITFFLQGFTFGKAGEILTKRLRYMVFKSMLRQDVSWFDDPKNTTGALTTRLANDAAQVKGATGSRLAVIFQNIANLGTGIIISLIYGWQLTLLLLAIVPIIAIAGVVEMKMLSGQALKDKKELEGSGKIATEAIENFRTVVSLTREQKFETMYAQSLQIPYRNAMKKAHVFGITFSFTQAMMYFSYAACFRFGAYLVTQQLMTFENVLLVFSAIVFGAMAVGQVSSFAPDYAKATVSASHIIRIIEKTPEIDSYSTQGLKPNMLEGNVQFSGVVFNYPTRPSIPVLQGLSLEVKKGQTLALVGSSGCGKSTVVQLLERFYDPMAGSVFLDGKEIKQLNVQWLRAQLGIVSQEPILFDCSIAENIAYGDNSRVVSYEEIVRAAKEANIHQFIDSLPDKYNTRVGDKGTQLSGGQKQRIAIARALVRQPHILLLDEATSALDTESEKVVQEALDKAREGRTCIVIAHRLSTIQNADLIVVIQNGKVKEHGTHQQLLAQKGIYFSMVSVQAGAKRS
Method: For validation of silence efficiency in vivo, mdr1a-1 siRNA was injected via the tail vein of mice after diluted to 5, 10 and 15 nmol with saline in 200 μl. After 48 h, the mice were euthanized and the liver was collected for measurement of the P-gp protein expression using western blot. The P-gp function in gene knockdown mice was assessed using digoxin, a known P-gp substrate. NC-siRNA or mdr1a-1 siRNA was intravenously injected 2 days prior to the injection of digoxin (1mg/kg). Blood samples were collected at 5, 15, 30, min and 1, 2, 4, 6, 8, 12 hours post digoxin dose (n = 5/time-point for each group). The digoxin concentrations in samples were quantitatively analyzed by a published LC-MS/MS method.
Toxicokinetic parameters, including area under the plasma concentration-time curve (AUC), volume of distribution (Vd), clearance (CL), mean residence time (MRT) and terminal elimination half-life (t1/2), were calculated by non-compartmental analysis using WinNonlin 5.2 software (Pharsight Corporation, CA, USA). All the data were expressed as mean ± SD. Differences between groups were compared by Student’s t-test for analysis of unpaired data or one-way ANOVA. Statistical significance was accepted at P < 0.05.

BALB/C mice [1] = experiment: Serum ALT and AST (TP-induced hepatotoxicity) in mice; type: in vivo; details: TP 1 mg/kg iv with P-gp modulator, 24 h after TP
Method: For TP plasma kinetic study and toxicological evaluation, mice were divided into four groups (n = 5 each) to collect blood and tissue samples: (1) normal + saline group; (2) 1.0 mg/kg TP + 15 nmol NC-siRNA group; (3) 1.0 mg/kg TP + 15 nmol mdr1a-siRNA group; (4) 1.0 mg/kg TP + 10 mg/kg tariquidar group. In order to avoid the complication caused by drug absorption or possible intestinal first-pass effect, TP and the inhibitor were intravenously administrated to mice. The siRNA group was intravenously injected with NC-siRNA or mdr1a-siRNA 2 days before TP dose. For TP + tariquidar group, the mice were received an intravenous tariquidar dose 20 min prior to the TP injection. Blood samples were collected at 2, 5, 10, 15, 30, 60 and 120 min after TP dosing. To assess the liver exposure of TP, liver tissue samples were collected from another set of mice at 5, 30, 60 and 120 min after dosing. Three TP groups were design for this experiment, including TP + NC-siRNA group, TP + mdr1a-siRNA group and TP + tariquidar group. The liver tissue samples were weighed and then homogenized in 10 volume (w:v) of ice-cold saline. The concentrations of TP in plasma and liver tissue were measured by a validated LC-MS/MS method. Prior to the above animal study, a preliminary experiment was performed to assess the possible differences in liver P-gp protein expression (Figure S1) and TP plasma kinetics between NC-siRNA treated mice and normal mice (with saline) (Figure S2 and supplemental Table 1). […] Therefore, NC-siRNA group was used as the control in the following animal study.
(§1) At 24 h of TP treatment, blood and liver tissue samples were collected from the mice in plasma kinetic study. Serum ALT and AST levels were determined with a CL8000 automated biochemical analyzer (Shimadzu, Japan) after serum was separated by centrifugation at 900 g for 10 min. Liver tissue samples were divided into two parts, the first half was kept at −80 °C until MDA and SOD measurements using MDA and SOD assay kits (Nanjing Jiancheng Bioengineering Institute, Nanjing, China) according to the manufacturer’s instructions. The other half was fixed with 4% paraformaldehyde solution and then dehydrated, embedded in paraffin and sectioned at a thickness of 5 μm. Four paraffin sections from each mouse were dewaxed, rehydrated and stained with hematoxylin-eosin (HE) for overall morphological evaluation. The total protein concentration was quantified by the BCA assay. Bcl-2 and Bax proteins were measured by western blot.

BALB/C mice [2] = experiment: Liver histopathology (HE staining) in mice; type: in vivo; details: TP 1 mg/kg iv, 24 h, TP = NC-siRNA group, tariquidar and mdr1a-1 siRNA = given before TP
Method: For TP plasma kinetic study and toxicological evaluation, mice were divided into four groups (n = 5 each) to collect blood and tissue samples: (1) normal + saline group; (2) 1.0 mg/kg TP + 15 nmol NC-siRNA group; (3) 1.0 mg/kg TP + 15 nmol mdr1a-siRNA group; (4) 1.0 mg/kg TP + 10 mg/kg tariquidar group. In order to avoid the complication caused by drug absorption or possible intestinal first-pass effect, TP and the inhibitor were intravenously administrated to mice. The siRNA group was intravenously injected with NC-siRNA or mdr1a-siRNA 2 days before TP dose. For TP + tariquidar group, the mice were received an intravenous tariquidar dose 20 min prior to the TP injection. Blood samples were collected at 2, 5, 10, 15, 30, 60 and 120 min after TP dosing. To assess the liver exposure of TP, liver tissue samples were collected from another set of mice at 5, 30, 60 and 120 min after dosing. […] The concentrations of TP in plasma and liver tissue were measured by a validated LC-MS/MS method. […]
At 24 h of TP treatment, blood and liver tissue samples were collected from the mice in plasma kinetic study. Serum ALT and AST levels were determined with a CL8000 automated biochemical analyzer (Shimadzu, Japan) after serum was separated by centrifugation at 900 g for 10 min. […] The total protein concentration was quantified by the BCA assay. Bcl-2 and Bax proteins were measured by western blot.

Bcl-2/Bax = experiment: Bcl-2 and Bax expression in mouse liver (western blot); type: in vivo; details: mice, TP 1 mg/kg iv, 24 h; tariquidar and mdr1a-siRNA = given before TP
Method: For protein extraction, the cells or mice liver tissues were homogenized in RIPA buffer and then centrifuged at 14,000 g at 4 °C for 30 min. The supernatant was collected and the protein concentration was measured using BCA assay. The sample (50 μg protein/sample) was then loaded on 12% polyacrylamide gels and transferred to polyvinylidene difluoride membranes (Millipore, USA). After blocked by 3% bovine serum albumin, the membranes were incubated with primary antibodies and HRP-conjugated secondary antibody, and then detected using the enhanced chemiluminescence plus detection system (Molecular Device, Lmax, USA). The density of each band was quantified by using image analysis software (Science Lab 2005 Image Guage; Tokyo, Japan).
as §1, with “The other half was fixed with 4% paraformaldehyde solution and then dehydrated, embedded in paraffin and sectioned at a thickness of 5 μm. Four paraffin sections from each mouse were dewaxed, rehydrated and stained with hematoxylin-eosin (HE) for overall morphological evaluation.” left out

[3] = Preliminary experiment: effect of NC-siRNA on pharmacokinetics of TP in mice; type: in vivo; details: TP 1.0 mg/kg
Method: Effect of NC-siRNA on pharmacokinetic of TP
Mice were divided into two groups to collect blood samples (n=5 each): (1) 1.0 mg/kg TP + saline group; (2) 1.0 mg/kg TP + 15 nmol NC-siRNA group. The siRNA group was intravenously injected with NC-siRNA 2 days before TP dose. Blood samples were collected at 2, 5, 10, 15, 30, 60 and 120 min after TP dosing. The concentrations of TP in plasma and liver were measured by a validated LC-MS/MS method.

mdr1a mRNA = experiment: RNAi knockdown of mdr1a mRNA in CT26.WT cells (real-time PCR); type: cell-based, mouse; details: siRNA 80 pM with Lipofectamin 2000, 48 h after transfection
Method: CT26.WT cells, a mouse colon carcinoma cell line, were obtained from ATCC and maintained in RPMI-1640 supplemented with 10% fetal bovine serum. Cells were seeded to 6-well plates at a density of 5 × 10^5 cells/well and cultured for 24 h. Transfection was performed in Opti-MEM (Invitrogen, Carlsbad, CA, USA) with synthetic siRNA (80 pM) by using Lipofectamin 2000 (Invitrogen, Carlsbad, CA, USA) for 6 h and the medium was replaced with fresh RPMI-1640. This condition was optimized in our preliminary experiments based on the transfection efficiency and the cellular viability. Following incubation for 48 h, the cells were washed three times with phosphate buffered saline buffer (PBS) and total RNA and protein were collected.
Total RNA from CT26. WT cells was extracted with Trizol (Invitrogen, Carlsbad, CA, USA) according to the manufacturer’s instructions. RNA samples (1 μg) were reverse transcribed by adding oligo(dT)18 (MBI Fermentas, USA), dNTP, RNase inhibitor, and M-MLV reverse transcriptase (Takara, Japan), holding at room temperature for 10 min and incubating at 42 °C for 60 min. The samples were heated at 72 °C to inactivate enzymes for 10 min and stored at −20 °C. Real-time PCR was performed using sense and antisense primers. […] The relative amount of target mRNA was determined using the comparative threshold (Ct) method by normalizing target mRNA Ct values to those for β-actin (ΔCt). […]

With `C[C@H]1O[C@@H](O[C@H]2[C@@H](O)C[C@H](O[C@H]3[C@@H](O)C[C@H](O[C@H]4CC[C@@]5(C)[C@H](CC[C@@H]6[C@@H]5C[C@@H](O)[C@]5(C)[C@@H](C7=CC(=O)OC7)CC[C@]65O)C4)O[C@@H]3C)O[C@@H]2C)C[C@H](O)[C@@H]1O` [Digoxin, digoxin] the AUC(0-t) (P-gp; NC-siRNA iv 2 days prior) was 3360 ± 739 ng·h/mL, the Cmax (P-gp; NC-siRNA iv 2 days prior) was 1740 ± 574 ng/mL and the MRT (P-gp; NC-siRNA iv 2 days prior) was 3.7 ± 0.3 h. For the same molecule, the Vd (P-gp; NC-siRNA iv 2 days prior) was 2 ± 0.5 L/kg, the clearance (P-gp; NC-siRNA iv 2 days prior) was 4.21 mL/min/kg and the half-life (P-gp; NC-siRNA iv 2 days prior) was 5.7 ± 1.3 h. For the same molecule, the AUC(0-t) (P-gp; mdr1a-1 siRNA iv 2 days prior) was 8770 ± 1450 ng·h/mL, the Cmax (P-gp; mdr1a-1 siRNA iv 2 days prior) was 2260 ± 267 ng/mL and the MRT (P-gp; mdr1a-1 siRNA iv 2 days prior) was 3.8 ± 0.4 h. For the same molecule, the Vd (P-gp; mdr1a-1 siRNA iv 2 days prior) was 0.6 ± 0.08 L/kg, the clearance (P-gp; mdr1a-1 siRNA iv 2 days prior) was 1.66 mL/min/kg and the half-life (P-gp; mdr1a-1 siRNA iv 2 days prior) was 4 ± 1.4 h.
In the case of `COc1cc2c(cc1OC)CN(CCc1ccc(NC(=O)c3cc(OC)c(OC)cc3NC(=O)c3cnc4ccccc4c3)cc1)CC2` [tariquidar, Tariquidar, reference compound], the “Serum ALT level, folds of the TP+NC-siRNA group” value (BALB/C mice [1]) is reported as 1.2 folds, the “Serum AST level, folds of the TP+NC-siRNA group” value (BALB/C mice [1]) is reported as 1.9 folds and the “Histopathological changes in liver (HE)” value (BALB/C mice [2]) is reported as “more severe”. The “Bcl-2/Bax ratio in liver” value (Bcl-2/Bax) was “markedly reduced the ratio”.
For “NC-siRNA: negative control siRNA, sense 5′-UUCUCCGAACGUGUCACGUTT-3′ (antisense ACGUGACACGUUCGGAGAATT; sugars by position and backbone not given here; 3' and 5' ends modified with methylation and cholesterol) [reference compound]”, the “Differences in TP plasma concentrations and kinetic parameters, NC-siRNA treated vs normal (saline) mice” value [3] was “No significant differences”.
With “mdr1a-2: murine mdr1a siRNA, sense 5′-r(AGA AGGAAC UAG AAG GUU CUG) d(TT)-3′ (sense AGAAGGAACUAGAAGGUUCUG; antisense CAGAACCUUCUAGUUCCUUCU; RNA, 3' dTdT, backbone and methylation of C not given here; 3' and 5' ends modified with methylation and cholesterol)” the “Silencing efficiency on mdr1a mRNA” value (mdr1a mRNA) was 51%.
For “mdr1a-3: murine mdr1a siRNA, sense 5′-GGCUGGACAAGCUGUGCAUGG-3′ (antisense AUGCACAGCUUGUCCAGCCAA; sugars by position and backbone not given here; 3' and 5' ends modified with methylation and cholesterol)”, the “Silencing efficiency on mdr1a mRNA” value (mdr1a mRNA) was 46%.
